Consider one sequence from article PMC8440923, “Peptides Targeting the Interaction Between Erb1 and Ytm1 Ribosome Assembly Factors” (Frontiers in Molecular Biosciences, 2021).

Holding throughout (format): binding, Chaetomium thermophilum
Assay [1] addresses T1, Ytm1 (Thermochaetoides thermophila, UniProt G0SFB5).
T1 construct: 6xHis; made in house; host or cells: Sf9 insect cells (baculovirus)
T1 sequence (G0SFB5 1-495): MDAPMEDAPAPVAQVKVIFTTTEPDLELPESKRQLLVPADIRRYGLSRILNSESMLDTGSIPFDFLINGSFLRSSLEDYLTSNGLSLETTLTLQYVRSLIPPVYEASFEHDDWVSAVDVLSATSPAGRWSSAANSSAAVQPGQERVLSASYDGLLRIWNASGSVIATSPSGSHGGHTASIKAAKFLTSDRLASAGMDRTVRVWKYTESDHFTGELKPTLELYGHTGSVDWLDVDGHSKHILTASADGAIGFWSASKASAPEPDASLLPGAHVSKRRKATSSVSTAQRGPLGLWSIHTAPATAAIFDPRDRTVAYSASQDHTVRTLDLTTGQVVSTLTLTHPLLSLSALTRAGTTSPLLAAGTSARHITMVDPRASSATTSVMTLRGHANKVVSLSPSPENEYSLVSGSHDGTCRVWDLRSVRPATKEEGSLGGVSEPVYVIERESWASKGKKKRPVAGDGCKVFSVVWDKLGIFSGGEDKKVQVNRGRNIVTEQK
The experiment in a line: Microscale thermophoresis of labelled Ytm1 with peptide. Conditions: peptide at a maximum concentration of 1,580 µM, data quality did not allow fitting of KD. The protocol:
Microscale thermophoresis (MST) was used to determine the binding affinity between Ytm1 and P1. Ytm1 was labeled with a Red-NHS second-generation dye kit (100 µl at 10 µM of protein +300 µM dye solution) for 30 min at room temperature in the dark. 5 nM of labeled Ytm1 in 50 mM HEPES pH 7.5, NaCl 150 mM supplemented with 0.1% (v/v) Pluronic F-127 was used for the assay. P1 stock is diluted in 10 mM Tris (hydroxymethyl)-methylamine (Tris-HCl), pH 8.8. Ytm1 and P1 were mixed at 1:1 molar ratio in sixteen serial dilutions (1,230 μM–0.0751 µM) using the same buffer. Measurements were taken on a Monolith NT.115 instrument (NanoTemper Technologies). Similarly biding between Ytm1 and P3 using MST was tested using the same Ytm1 buffer also for P3. Curve fitting and KD calculations every 10 min were analyzed from three independent experiments with MO. […] Curves were analyzed using Affinity Analysis Software (NanoTemper Technologies).
In general terms: In MST a laser heats a spot of the sample, and binding alters the fluorescence response.

Another assay deals with T2, Erb1/Ytm1 complex (Thermochaetoides thermophila, UniProt G0SFB5).
T2 construct: 6xHis; made in house; host or cells: Ytm1: Sf9 insect cells (baculovirus); Erb1: Escherichia coli (DE3) BL21 CodonPlus (RIPL)
T2 sequence (G0SFB5 1-495): T1 sequence (G0SFB5 1-495)
Nature of the assay: Biolayer interferometry peptide interference assay, immobilized Erb1, Ytm1 analyte preincubated with P1-P3. To be noted: BLI, 5 µM Ytm1 preincubated with equimolar peptide, reference without peptide 1.724e-3. On the procedure:
Peptides were commercially obtained from Synpeptide Co., Ltd., Shanghai, China. All experiments have been made in triplicates and include control curves for bait and analyte only.
Potential interference peptide samples were evaluated by their ability to interfere the kinetics and affinity of the complex between Erb1 and Ytm1 as measured by Biolayer Interferometry (BLItz, Pall FortéBio Corp.) using Ni-NTA biosensors (FortéBio) and 50 mM HEPES, pH 7.5; 150 mM NaCl; 5% (v/v) glycerol; and 2 mM β-mercaptoethanol (BME) buffer. To set the reference KD, an 80 µg/ml solution of Erb1 was immobilized to the biosensor in order to obtain binding curves for increasing concentrations of Ytm1. According to this, an evaluation of Erb1-derived peptides (P1–P3) was performed using 5 µM Ytm1 previously incubated during 30 min at equimolar concentrations of each peptide. New KD values were determined. […]
Biolayer interferometry interference assays were used to evaluate the ability of each peptide to interfere in the in vitro formation of the Erb1/Ytm1 complex. […] Peptides were evaluated for their ability to decrease in the Erb1/Ytm1 complex formation by preincubating the analyte with each peptide derived from the immobilized partner. […] Erb1-derived peptides were evaluated by their ability to decrease Erb1/Ytm1 complex affinity. […]
(In general: In BLI a coated tip is dipped into the sample, and binding shifts an interference pattern.)

The target in assay [2] is T1, Ytm1. Nature of the assay: Differential scanning fluorimetry (thermofluor) of Ytm1 with peptide. To be noted: DSF, SYPRO Orange 1:1,000; 5 µM Ytm1, 1 mM peptide; 50 mM HEPES pH 7.5, 150 mM NaCl; 20-85°C at 1°C/min; triplicates. The protocol:
Thermofluor assays ([Pantoliano et al., 2001]) were performed on a 7,500 Fast Real-Time PCR System (Applied Biosystems) measuring the gradual fluorescence generated by a 1:1,000 dilution of SYPRO Orange Protein Stain Gel (Supelco, Merck-Sigma) along with 1°C/min temperature increase from 20°C until 85°C.
The samples were mixed containing the protein Ytm1 at 5 µM in 50 mM HEPES pH 7.5, 150 mM NaCl and peptides P1-P3 at 1 mM concentration. Previously, lyophilized P2 and P3 were resuspended in the same Ytm1 buffer and P1 was solubilized in 10 mM Tris (hydroxymethyl)-methylamine (Tris-HCl), pH 8.8 for P1. Data of triplicated experiments were analyzed using GraphPad Prism 5.01 software.
In general terms: Differential scanning fluorimetry follows unfolding on heating by fluorescence.

For “DWHPREPWCV [Peptide P3, Erb1-derived peptide …, residues 780–789]”, the “Binding to Ytm1 by MST (in words)” value on Ytm1 [1] is on record as “tendency toward binding”. For the same sequence, the “kd (1/s) of Erb1/Ytm1 binding after preincubation of Ytm1 with peptide” value at Erb1/Ytm1 complex turned out to be 0.01238 s⁻¹. Also, the “Thermal shift (Tm) of Ytm1 in the presence of peptide” value at Ytm1 [2] was “did not show any significant thermal shift”.
